According to patent US20230373985A1 (Origenis Gmbh, priority 2020, published 2023):

Experiments:
[1] = molecular target: T1, wt human TYK2, catalytic site (Homo sapiens, UniProt P29597); assay: HTRF KinEASE assay, TYK2; type: biochemical; conditions: 1 μM ATP; read-out: IC50, Activity Toward TYK2
T1 construct: wt human TYK2, catalytic site; purchased SignalChem
T1 sequence (P29597 897-1176 limits assumed): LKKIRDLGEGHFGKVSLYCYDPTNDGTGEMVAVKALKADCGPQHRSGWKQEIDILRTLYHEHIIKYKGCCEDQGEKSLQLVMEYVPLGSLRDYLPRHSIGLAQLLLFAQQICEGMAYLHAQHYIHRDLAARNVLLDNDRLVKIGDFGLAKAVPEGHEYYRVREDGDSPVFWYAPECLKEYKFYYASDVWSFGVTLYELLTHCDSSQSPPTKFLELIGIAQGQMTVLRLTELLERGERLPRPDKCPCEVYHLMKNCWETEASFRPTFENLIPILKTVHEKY
How it was run: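 HTRF KinEASE-TK readout with 1 μM biotinylated TK substrate in 1× kinase buffer, ≥30 min at room temperature, then antibody/streptavidin-XL665 detection for 60 min. TYK2 at 2 nM with 1 μM ATP; JAK2 at 1 nM with 100 μM ATP. Analysis uses emission ratios.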

[2] = molecular target: T2, wt human LRRK2, catalytic site (Homo sapiens, UniProt Q5S007); assay: TR-FRET LanthaScreen Eu Kinase Binding Assay, LRRK2 wt; conditions: one range stated for wt and G2019, read-out: IC50, Activity Toward LRRK2(Wt)
T2 construct: 5 nM wt human LRRK2, catalytic site; purchased ThermoFisher
T2 sequence (Q5S007 970-2527 limits assumed): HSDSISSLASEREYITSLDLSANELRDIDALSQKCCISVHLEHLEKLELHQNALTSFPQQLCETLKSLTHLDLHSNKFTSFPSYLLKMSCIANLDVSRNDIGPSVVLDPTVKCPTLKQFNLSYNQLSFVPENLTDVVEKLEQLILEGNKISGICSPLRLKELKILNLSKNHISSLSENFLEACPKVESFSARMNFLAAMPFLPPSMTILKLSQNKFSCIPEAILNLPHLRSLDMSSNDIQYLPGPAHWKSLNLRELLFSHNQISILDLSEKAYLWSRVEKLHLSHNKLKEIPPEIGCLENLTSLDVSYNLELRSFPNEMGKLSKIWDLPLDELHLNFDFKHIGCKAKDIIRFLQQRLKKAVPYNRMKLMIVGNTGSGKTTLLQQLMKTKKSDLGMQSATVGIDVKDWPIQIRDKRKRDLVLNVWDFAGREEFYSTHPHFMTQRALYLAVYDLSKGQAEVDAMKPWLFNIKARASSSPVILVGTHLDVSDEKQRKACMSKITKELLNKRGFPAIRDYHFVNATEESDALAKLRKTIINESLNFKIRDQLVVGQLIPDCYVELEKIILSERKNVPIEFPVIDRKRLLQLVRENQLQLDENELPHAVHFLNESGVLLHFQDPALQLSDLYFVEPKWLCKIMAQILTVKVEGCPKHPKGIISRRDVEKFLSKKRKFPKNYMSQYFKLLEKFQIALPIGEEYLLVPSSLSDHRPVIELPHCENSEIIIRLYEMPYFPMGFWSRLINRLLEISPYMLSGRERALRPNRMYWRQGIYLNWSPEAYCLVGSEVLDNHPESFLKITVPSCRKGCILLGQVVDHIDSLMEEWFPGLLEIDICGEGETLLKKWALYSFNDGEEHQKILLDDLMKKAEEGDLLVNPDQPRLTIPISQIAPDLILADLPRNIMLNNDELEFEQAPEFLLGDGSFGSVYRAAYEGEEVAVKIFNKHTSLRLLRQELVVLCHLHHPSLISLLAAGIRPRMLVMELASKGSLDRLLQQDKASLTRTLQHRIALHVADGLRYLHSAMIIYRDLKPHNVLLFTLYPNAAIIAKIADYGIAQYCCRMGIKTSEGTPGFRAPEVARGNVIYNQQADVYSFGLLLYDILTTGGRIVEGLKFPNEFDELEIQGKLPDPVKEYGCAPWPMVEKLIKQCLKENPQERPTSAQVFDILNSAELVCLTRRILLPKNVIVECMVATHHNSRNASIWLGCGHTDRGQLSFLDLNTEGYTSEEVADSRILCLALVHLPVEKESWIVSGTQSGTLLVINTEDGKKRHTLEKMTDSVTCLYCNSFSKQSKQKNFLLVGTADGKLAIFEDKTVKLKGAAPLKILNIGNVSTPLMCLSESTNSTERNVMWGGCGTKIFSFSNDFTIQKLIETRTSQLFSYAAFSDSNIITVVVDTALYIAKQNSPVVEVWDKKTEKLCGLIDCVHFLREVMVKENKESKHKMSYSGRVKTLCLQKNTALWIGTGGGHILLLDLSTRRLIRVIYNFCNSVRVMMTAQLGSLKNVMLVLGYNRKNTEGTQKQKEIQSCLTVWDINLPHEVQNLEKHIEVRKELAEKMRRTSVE
How it was run: (§1)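 Tracer-displacement binding: compound mixed with kinase/Eu-antibody and Kinase Tracer 236 in 1× Kinase Buffer A, 1 h at room temperature, then TR-FRET emission ratio read. LRRK2 (wt or G2019S) 5 nM with 2 nM Eu-anti-GST, 10 nM tracer; NUAK1 8 nM with 2 nM Eu-anti-His, 5 nM tracer.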

[3] = molecular target: T3, G2019S human LRRK2, catalytic site (Homo sapiens, UniProt Q5S007, G2019S); assay: TR-FRET LanthaScreen Eu Kinase Binding Assay, LRRK2 G2019S; conditions: LRRK2(G2019); one range stated for wt and G2019; read-out: IC50, Activity Toward LRRK2(G2019)
T3 construct: G2019S human LRRK2, catalytic site; purchased ThermoFisher
T3 sequence (Q5S007 970-2527 G2019S limits assumed): as the sequence (Q5S007 970-2527 limits assumed) above, with G1050S counted along it
How it was run: as §1

[4] = molecular target: T4, wt human NUAK1, full length (Homo sapiens, UniProt O60285); assay: TR-FRET LanthaScreen Eu Kinase Binding Assay, NUAK1; conditions: read-out: IC50, Activity Toward NUAK1
T4 construct: 8 nM wt human NUAK1, full length (ThermoFisher/USA); purchased ThermoFisher
T4 sequence (O60285 1-661): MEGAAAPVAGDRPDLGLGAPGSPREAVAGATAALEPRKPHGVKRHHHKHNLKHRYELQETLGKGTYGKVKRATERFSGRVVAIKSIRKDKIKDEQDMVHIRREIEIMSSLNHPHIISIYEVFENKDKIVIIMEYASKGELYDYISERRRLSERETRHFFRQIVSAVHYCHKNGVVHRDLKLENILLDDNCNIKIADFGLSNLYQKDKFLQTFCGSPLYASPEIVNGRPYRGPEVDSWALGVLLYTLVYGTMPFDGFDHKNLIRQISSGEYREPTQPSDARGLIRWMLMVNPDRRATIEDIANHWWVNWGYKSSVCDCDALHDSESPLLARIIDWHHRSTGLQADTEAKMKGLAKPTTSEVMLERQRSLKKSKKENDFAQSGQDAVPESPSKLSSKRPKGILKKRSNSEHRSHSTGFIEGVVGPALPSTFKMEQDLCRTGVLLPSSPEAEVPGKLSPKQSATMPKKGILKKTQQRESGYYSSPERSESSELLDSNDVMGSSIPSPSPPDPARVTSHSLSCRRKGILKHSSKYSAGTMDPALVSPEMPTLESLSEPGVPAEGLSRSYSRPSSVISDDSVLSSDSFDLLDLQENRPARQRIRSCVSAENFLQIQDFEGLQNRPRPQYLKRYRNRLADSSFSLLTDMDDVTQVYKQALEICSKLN
How it was run: as §1

[5] = molecular target: T5, wt human JAK1, catalytic site (Homo sapiens, UniProt P23458); assay: HTRF KinEASE assay, JAK1; type: biochemical; conditions: 2.5 μM ATP; read-out: IC50, Activity Toward JAK1
T5 construct: wt human JAK1, catalytic site; purchased ThermoFisher
T5 sequence (P23458 875-1153 limits assumed): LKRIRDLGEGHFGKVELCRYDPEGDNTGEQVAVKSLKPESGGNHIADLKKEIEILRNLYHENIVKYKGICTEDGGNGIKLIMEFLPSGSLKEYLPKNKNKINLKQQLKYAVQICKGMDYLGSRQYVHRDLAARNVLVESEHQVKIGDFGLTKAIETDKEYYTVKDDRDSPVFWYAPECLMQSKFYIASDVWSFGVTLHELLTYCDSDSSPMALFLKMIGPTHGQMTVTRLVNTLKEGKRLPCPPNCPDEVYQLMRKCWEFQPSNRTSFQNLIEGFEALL
How it was run: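 Two-step HTRF KinEASE assay: compound, kinase/biotinylated TK substrate and ATP were incubated at least 30 min at room temperature. Antibody plus streptavidin-XL665 was then added and plates were read after 60 min. Inhibition was derived from emission ratios according to the kit protocol.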

| IC50 [1] [nM] | IC50 [2] [nM] | IC50 [3] [nM] | IC50 [4] [nM] | IC50 [5] [nM] | Compound |
| --- | --- | --- | --- | --- | --- |
| 10 to 100 | 100 to 1000 | 100 to 1000 | 100 to 1000 | 100 to 1000 | NC(=O)c1nn(-c2c(Cl)cccc2Cl)cc1Nc1ccc(C(=O)N2CC[C@@H](N3CCCC3)C2)cc1 [compound 331, (R)-4-((4-([1,3′-bipyrrolidine]-1′-carbonyl)phenyl)amino)-1-(2,6-dichlorophenyl)-1H-pyrazole-3-carboxamide] |
| < 10 | 100 to 1000 | 100 to 1000 | 100 to 1000 | 100 to 1000 | CC(=O)N1CC(n2cc(C(F)(F)F)nc2-c2ccc(Nc3cn(-c4c(Cl)cccc4Cl)nc3C(N)=O)cc2)C1 [compound 342, 4-((4-(1-(1-acetylazetidin-3-yl)-4-(trifluoromethyl)-1H-imidazol-2-yl)phenyl)amino)-1-(2,6-dichlorophenyl)-1H-pyrazole-3-carboxamide] |
| < 10 | 100 to 1000 | 100 to 1000 | 100 to 1000 | 100 to 1000 | N#Cc1cn(C2COC2)c(-c2ccc(Nc3cn(-c4c(Cl)cccc4Cl)nc3C(N)=O)cc2)n1 [compound 349, 4-((4-(4-cyano-1-(oxetan-3-yl)-1H-imidazol-2-yl)phenyl)amino)-1-(2,6-dichlorophenyl)-1H-pyrazole-3-carboxamide] |
| 10 to 100 | 100 to 1000 | 100 to 1000 | 100 to 1000 | 10 to 100 | Cn1cc(Nc2cn(-c3c(F)cccc3Cl)nc2C(N)=O)cn1 [compound 359, 1-(2-chloro-6-fluorophenyl)-4-((1-methyl-1H-pyrazol-4-yl)amino)-1H-pyrazole-3-carboxamide] |
| < 10 | 100 to 1000 | 100 to 1000 | 100 to 1000 | 10 to 100 | N#Cc1cn(CCO)c(-c2ccc(Nc3cn(-c4c(Cl)cccc4Cl)nc3C(N)=O)cc2)n1 [compound 361, 4-((4-(4-cyano-1-(2-hydroxyethyl)-1H-imidazol-2-yl)phenyl)amino)-1-(2,6-dichlorophenyl)-1H-pyrazole-3-carboxamide] |
| 10 to 100 | 100 to 1000 | 100 to 1000 | 100 to 1000 | 10 to 100 | CN1CCC(N(C)C(=O)c2ccc(Nc3cn(-c4c(Cl)ccc(F)c4Cl)nc3C(N)=O)cc2)CC1 [compound 417, 1-(2,6-dichloro-3-fluorophenyl)-4-((4-(methyl(1-methylpiperidin-4-yl)carbamoyl)phenyl)amino)-1H-pyrazole-3-carboxamide] |
| 10 to 100 | 100 to 1000 | 100 to 1000 | 100 to 1000 | 10 to 100 | CCN(CC)CCNC(=O)c1ccc(Nc2cn(-c3c(Cl)cccc3Cl)nc2C(N)=O)cc1 [compound 422, 1-(2,6-dichlorophenyl)-4-((4-((2-(diethylamino)ethyl)carbamoyl)phenyl)amino)-1H-pyrazole-3-carboxamide] |
| 10 to 100 | 100 to 1000 | 100 to 1000 | 100 to 1000 | 10 to 100 | CN(C)C1CCN(C(=O)c2ccc(Nc3cn(-c4c(Cl)cccc4Cl)nc3C(N)=O)cc2)CC1 [compound 423, 1-(2,6-dichlorophenyl)-4-((4-(4-(dimethylamino)piperidine-1-carbonyl)phenyl)amino)-1H-pyrazole-3-carboxamide] |
| < 10 | 100 to 1000 | 100 to 1000 | 100 to 1000 | < 10 | NC(=O)c1nn(-c2c(Cl)cccc2Cl)cc1Nc1ccc(C(=O)N2CC(C(N)=O)C2)cc1 [compound 453, 4-[4-(3-Carbamoyl-azetidine-1-carbonyl)-phenylamino]-1-(2,6-dichloro-phenyl)-1H-pyrazole-3-carboxylic acid amide] |
